Read-outs that look alike come from different tables or passages of the source.
Legend:
[1] = aqueous solution, cited from earlier work
[2] = Stability of epinephrine formulations after 1 month storage at 50° C. (HPLC potency, degradants, pH, appearance, O.D.); format: physicochemical
Method: Selected samples were also tested for drug chirality. The potency and chirality of drug were analyzed using HPLC methods. The degree of coloration was visually inspected and analytically measured their optical densities using a UV/VIS spectrophotometer at the maximum absorption wavelength (λmax) at 485 nm.

[3] = 1:10 cysteine-to-drug complex and commercial formulation
[4] = non-complex, acetylcysteine levels
[5] = non-complex, mixed antioxidants
[6] = non-complex, thioglycerol levels
[7] = pediatric formulations (1:2000)

SMILES	association constant (K) of the inclusion complex with SBEβCD ([1]; pH 3.5)	association constant (K) of the inclusion complex with SBEβCD ([1]; pH 5.5)	Appearance ([2]; 1:1 cysteine-to-drug)	O.D. (Absorbance at λmax = 485 nm) ([2]; 1:1 cysteine-to-drug)	Appearance [2, 3]	O.D. (Absorbance at λmax = 485 nm) [2, 3]	Appearance ([2]; 2:1 cysteine-to-drug)	O.D. (Absorbance at λmax = 485 nm) ([2]; 2:1 cysteine-to-drug)	Appearance ([2]; 5:1 cysteine-to-drug)	O.D. (Absorbance at λmax = 485 nm) ([2]; 5:1 cysteine-to-drug)	Appearance [2, 4]	O.D. (Absorbance at λmax = 485 nm) [2, 4]	Appearance ([2]; non-complex, cysteine levels)	O.D. (Absorbance at λmax = 485 nm) ([2]; non-complex, cysteine levels)	Appearance [2, 5]	O.D. (Absorbance at λmax = 485 nm) [2, 5]	Appearance [2, 6]	O.D. (Absorbance at λmax = 485 nm) [2, 6]	Appearance [2, 7]	O.D. (Absorbance at λmax = 485 nm) [2, 7]
CNCC(O)c1ccc(O)c(O)c1 (single isomer, unassigned; (-)) [epinephrine, (−)-3,4-Dihydroxy-α-[(methylamino)methyl]benzyl alcohol]	488 M⁻¹	111 M⁻¹																		
II [0.0005N Iodine]			Slightly brownish	0.1206	Slightly brownish	0.1354	Slightly brownish	0.1206	Slightly brownish	0.1290	Slightly brownish	0.1354	Slightly brownish	0.1354	Slightly brownish	0.1354	Slightly brownish	0.1354	Slightly brownish	0.1354
